Target: T1, TREK-1 (TWIK-related potassium channel-1) (Rattus norvegicus, UniProt Q920B6)
T1 construct: gene Kcnk2
T1 sequence (Q920B6 1-426): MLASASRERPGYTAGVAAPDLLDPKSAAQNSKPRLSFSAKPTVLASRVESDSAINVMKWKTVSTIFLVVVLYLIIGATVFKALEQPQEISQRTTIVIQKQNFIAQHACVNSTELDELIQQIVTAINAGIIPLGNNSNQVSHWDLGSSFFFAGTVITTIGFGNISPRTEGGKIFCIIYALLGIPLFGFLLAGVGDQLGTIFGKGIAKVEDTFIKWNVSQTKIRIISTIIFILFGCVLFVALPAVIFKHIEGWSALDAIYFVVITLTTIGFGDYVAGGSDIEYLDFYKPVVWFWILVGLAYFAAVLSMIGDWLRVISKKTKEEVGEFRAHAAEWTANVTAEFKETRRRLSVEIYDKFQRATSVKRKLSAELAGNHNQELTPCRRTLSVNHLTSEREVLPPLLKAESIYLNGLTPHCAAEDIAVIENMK
Experiment: whole-cell and inside-out single-channel patch clamp of TREK-1 overexpressed in HEK-293 cells
Type: cell-based

IC50: 302 ± 17.6 µM
Compound: CCCCN1CCCCC1C(=O)Nc1c(C)cccc1C (stereo not shown) [bupivacaine]
